Data taken from patent US20250122250A1, “AUXIN-DEGRON SYSTEM KIT AND USE THEREFOR” (Inter-University Research Institute Corporation Research …, priority 2021, published 2025).
Values belong to the compound of their own block, whether it stands above or below them.

How the values were obtained:
[1] = target: T1, AtTIR1 (F79G) (Arabidopsis thaliana, UniProt Q570C0, D170E/F79G/M473L); experiment: AID*::GFP reporter degradation in embryos expressing AtTIR1 (F79G)::mRuby; format: in vivo; parameters: expressed in transfected cells
Protocol: Rapid removal of the target in the embryos is useful for analyzing a role of a protein in embryogenesis. Initially, 5-Ph-IAA was used to test the efficacy of protein removal in embryos. An egg-planting embryo expressing AtTIR1 (F79G)::mRuby and AID*::GFP was placed in a droplet of an M9 buffer including 50 μM 5-Ph-IAA, and then the reporter intensity was monitored (see FIG. 4A).
An egg-planting embryo expressing AtTIR1 (F79G)::mRuby and AID*::GFP was placed in a droplet of an M9 buffer including 50 μM 5-Ph-IAA-AM, and then the reporter intensity was monitored (see FIG. 4D).

[2] = target: T1, AtTIR1 (F79G); experiment: AID*::GFP reporter degradation in adult nematodes expressing AtTIR1 (F79G); format: in vivo; parameters: expressed in transfected cells; host or cells: transgenic C. elegans (CRISPR-Cas9 knock-in at the ttTi5605 locus; larvae, adults, embryos); conditions: 5 μM 5-Ph-IAA for 4 hours
Protocol: (§1) Furthermore, the efficacy of the AID2 system in adults was tested.

[3] = target: T1, AtTIR1 (F79G); format: in vivo; parameters: expressed in transfected cells; host or cells: transgenic C. elegans (CRISPR-Cas9 knock-in at the ttTi5605 locus; larvae, adults, embryos)
Protocol: (§2) Next, L1 larvae were grown on plates including ligands at different concentrations. The intensity of the AID*::GFP reporter of larvae (second generation) born from adults was monitored.
as §1

[4] = test system: nematodes; experiment: number of progeny of L1 larvae grown in the presence of ligand; format: in vivo, C. elegans; conditions: 5 μM 5-Ph-IAA, L1 larvae expressing AID*::GFP with AtTIR1 (F79G)
Protocol: Next, in order to confirm that 5-Ph-IAA is safer than IAA against nematodes, L1 larvae expressing AID*::GFP were each grown with AtTIR1 or AtTIR1 (F79G) in the presence of 1 mM IAA or 5 μM 5-Ph-IAA.

[5] = target: AID*::GFP (Arabidopsis thaliana)
[6] = target: AID*::GFP (Arabidopsis thaliana); remark: listed apart in the source
[7] = target: AID*::GFP (Arabidopsis thaliana); remark: listed apart in the source
[8] = target: T2, AtTIR1 (Arabidopsis thaliana, UniProt Q570C0, D170E/M473L); experiment: AID*::GFP reporter level in second generation larvae expressing AtTIR1, grown on ligand plates; format: in vivo; conditions: combined with AtTIR1, larvae treated for one generation; read-out: estimated DC50 value (ligand concentrations required for 50% degradation)
T2 construct: expressed in transfected cells; host or cells: transgenic C. elegans (larvae)
Protocol: as §2, §1

T1 sequence (Q570C0 whole entry F79G/D170E/M473L): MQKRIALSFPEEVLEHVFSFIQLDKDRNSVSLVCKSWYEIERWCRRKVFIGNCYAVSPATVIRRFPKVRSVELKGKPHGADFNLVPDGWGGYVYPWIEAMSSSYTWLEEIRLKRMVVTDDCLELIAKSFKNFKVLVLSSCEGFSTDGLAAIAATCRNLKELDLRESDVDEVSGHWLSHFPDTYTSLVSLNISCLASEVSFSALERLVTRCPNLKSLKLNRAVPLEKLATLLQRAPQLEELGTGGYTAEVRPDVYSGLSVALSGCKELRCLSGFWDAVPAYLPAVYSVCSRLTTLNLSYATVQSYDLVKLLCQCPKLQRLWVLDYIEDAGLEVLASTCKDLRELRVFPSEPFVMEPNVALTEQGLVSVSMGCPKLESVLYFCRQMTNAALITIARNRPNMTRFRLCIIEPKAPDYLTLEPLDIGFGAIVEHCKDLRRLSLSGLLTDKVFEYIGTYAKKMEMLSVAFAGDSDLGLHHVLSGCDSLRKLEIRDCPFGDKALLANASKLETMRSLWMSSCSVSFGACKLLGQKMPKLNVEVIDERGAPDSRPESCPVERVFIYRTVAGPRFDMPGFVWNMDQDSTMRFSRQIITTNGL
T1 sequence (G5ECU1 whole entry, further chain): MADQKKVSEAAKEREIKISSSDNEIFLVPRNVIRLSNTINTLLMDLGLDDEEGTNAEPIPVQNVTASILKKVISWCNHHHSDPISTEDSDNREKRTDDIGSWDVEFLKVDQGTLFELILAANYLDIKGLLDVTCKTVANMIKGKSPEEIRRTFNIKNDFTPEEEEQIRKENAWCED
T1 sequence (P93830 71-114, further chain): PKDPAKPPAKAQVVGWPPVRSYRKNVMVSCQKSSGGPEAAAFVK
T2 sequence (G5ECU1 whole entry): as the sequence (G5ECU1 whole entry, further chain) above
T2 sequence (Q570C0 whole entry D170E/M473L): as the sequence (Q570C0 whole entry F79G/D170E/M473L) above, with G79F counted along it
T2 sequence (P93830 71-114, further chain): as the sequence (P93830 71-114, further chain) above

Compound: O=C(O)Cc1c[nH]c2ccc(-c3ccccc3)cc12 [5-Ph-IAA, 5-phenylindole-3-acetic acid]
time at which degradation of the reporter reached the maximum ([1]; 50 μM 5-Ph-IAA, embryos): 15 to 30 min
embryos with rapid decrease of fluorescence intensity ([1]; 50 μM in M9 buffer, 18/23 embryos): 78%
embryos with rapid decrease of fluorescence intensity ([1]; 100 μM, 16/20 embryos): 80%
AID*::GFP reporter in adults [2]: a loss of the reporter was observed
AID*::GFP reporter expression in second generation larvae ([3]; 5.0 μM 5-Ph-IAA, among different ligand concentrations): lowest reporter expression
ligand concentration required, times lower than that of the AID system (IAA with AtTIR1) ([3]; long-term treatment, AID2 system vs AID system): about 1,300 times
DC50 ([3]; read-out: estimated DC50 value (ligand concentrations required for 50% degradation), combined with AtTIR1 (F79G), larvae treated for one generation): 0.0045 µM
number of progeny [4]: showed no difference

DC50 (ligand concentration required for 50% degradation) of 5-Ph-IAA, AID*::GFP reporter in larvae treated for one generation [5]: 0.0045 µM
half-life of the AID*::GFP reporter level in larvae treated with 5 µM 5-Ph-IAA [6]: 15.5 min
Compound: AtTIR1 (F79G)::mRuby

DC50 (ligand concentration required for 50% degradation) of IAA, AID*::GFP reporter in larvae treated for one generation [5]: 59 µM
intensity of AID*::GFP in larvae, no ligand added (basal degradation) [7]: 73%
half-life of the AID*::GFP reporter level in larvae treated with 1 mM IAA [6]: 16.8 min
Compound: AtTIR1::mRuby

Compound: O=C(O)Cc1c[nH]c2ccccc12 [IAA]
DC50 [8]: 59 µM

Compound: CC(=O)OCOC(=O)Cc1c[nH]c2ccc(-c3ccccc3)cc12 [5-Ph-IAA-AM, 5-phenylindole 3-acetic acid acetoxymethyl ester]
degradation of AID*::GFP reporter in embryos ([1]; 50 μM 5-Ph-IAA-AM in M9 buffer): rapid degradation in all embryos
